# Patent publication US8546421B1, “Oncogenic-RAS-signal dependent lethal compounds” (The Trustees of Columbia University in the City of New York, priority 2007, dated 2013)
# How the values were obtained:
# SR = experiment: NCI60 anti-cancer screening; conditions: for GI50 / CC50: Homo sapiens; for CC50: read-out: LC 50%; for GI 100%: Leukemia
# MOLT-4 = experiment: NCI60 anti-cancer screening; conditions: for GI50 / CC50: Homo sapiens; for GI50 / GI 100%: MOLT-4; for CC50: MOLT-4, read-out: LC 50%; for GI 100%: Leukemia
# HL-60(TB) = conditions: Leukemia
# [1] = system: A549, Calu-1, PaCa, and HCT116 cells; experiment: Alamar blue assay in KRAS-mutation-harboring cancer cells; type: cell-based, human
# Description: A549, Calu-1, HCT116 and MIA PaCa-2 cell lines have an oncogenic mutation in the KRAS gene. Compounds which tested positive in the oncogenic HRAS primary screen were also tested for their selectivity against oncogenic KRAS which is more commonly mutated in human cancers.
# [2] = system: BJ-TERT/LT/ST/RAS^V12 cells; experiment: Counter screening with biologically active compounds; type: cell-based, human; conditions: for biologically active compounds that suppress compound-induced cell death: 36 bioactive compounds of Table 1, 24 hours, alamar blue
# Description: Biologically active compounds listed in Table 1 were dissolved in BJ medium at 10× final concentration and aliquoted into eppendorf tubes. 100 μL of each 10× solution was transferred to column 1 to column 12 or column 13 to column 24 of a single row in a 384-well daughter plate. This plate was designated as ‘10× biologically active plate’. In order to prepare lethal compound solution, Erastin and compounds 3, 6, 27, and 36 were dissolved in BJ medium at a concentration of 100 μg/mL, 400 μg/mL, 400 μg/mL, 100 μg/mL, and 200 μg/mL, respectively. Empty daughter plates were filled with 50 μL BJ media except for columns 5 and 13 where 100 μL of each lethal solution was transferred. After lethal solution transfer, 2-fold dilution series across columns 5 to 12 and columns 13 to 20 was made by transferring 50 μL compound solution to the next column successively (8-point dilution series), with mixing. These five plates were each designated ‘10× lethal plate’. Five assay plates were prepared by seeding 4,000 BJ-TERT/LT/ST/RAS^V12 cells per well in 32 μL of growth media in black, clear bottom 384-well plates. Cells in assay plates were first treated with biologically active compounds by transferring 4 μL from the 10× inhibitor plate. Cells were then treated with each lethal compound in a 2-fold dilution series by transferring 4 μL solution from each 10× lethal plate. […] Percent growth inhibition (% GI) was calculated by the following formula using fluorescence intensity values: % GI=100*(1−(X−N)/([…])) wherein X is the fluorescent intensity value measured at 590 nm for cells treated with biologically active compound and lethal compound; N is the fluorescent intensity value measured at 590 nm for a control containing no cells (i.e. biologically active compound in growth media); and P is the fluorescent intensity value measured at 590 nm for a control containing no lethal compound (i.e., cells treated with biologically active compound). Counter Screening with Iron Chelators
# HT29 = experiment: NCI60 anti-cancer screening; conditions: for GI 100%: HT29, Colon Cancer; for GI50 / CC50: Homo sapiens; for GI50: HT-29; for CC50: HT-29, read-out: LC 50%
# HOP-92 = experiment: NCI60 anti-cancer screening; conditions: for GI 100% / GI50: HOP-92; for GI 100%: Non-small cell lung carcinoma; for GI50 / CC50: Homo sapiens; for CC50: HOP-92, read-out: LC 50%
# SF-268 = experiment: NCI60 anti-cancer screening; conditions: for GI50 / CC50: Homo sapiens; for GI50 / GI 100%: SF-268; for CC50: SF-268, read-out: LC 50%; for GI 100%: CNS Cancer
# RXF393 = experiment: NCI60 anti-cancer screening; conditions: for GI50 / CC50: Homo sapiens; for GI50: RXF 393; for CC50: RXF 393, read-out: LC 50%; for GI 100%: RXF393, Renal Cancer
# M14 = experiment: NCI60 anti-cancer screening; conditions: for GI50 / CC50: Homo sapiens; for GI50 / GI 100%: M14; for CC50: M14, read-out: LC 50%; for GI 100%: Melanoma
# SK-MEL-5 = experiment: NCI60 anti-cancer screening; conditions: for GI50 / CC50: Homo sapiens; for GI50 / GI 100%: SK-MEL-5; for CC50: SK-MEL-5, read-out: LC 50%; for GI 100%: Melanoma
# Calu-1 = experiment: Alamar Blue assay, additional cell lines; type: cell-based, human; conditions: for Maximum Inhibition % / GI50: Calu-1, Non-small cell lung carcinoma, Alamar Blue
# Source text: (§1) The results of this additional testing are summarized in Tables 7-10 (no additional cell lines were identified as sensitive for Compound 3). […] The tumor type, cell line, maximum percentage inhibition, the concentration of compound required to inhibit cell growth by 50%, and RAS mutation (if any) are also summarized.
# PaCa-2 = experiment: Alamar Blue assay, additional cell lines; type: cell-based, human; conditions: Pancreatic Cancer; for GI50: Homo sapiens
# Source text: as §1
# MDA-MB-435 = experiment: NCI60 anti-cancer screening; conditions: for GI50 / CC50: Homo sapiens; for GI50 / GI 100%: MDA-MB-435; for CC50: MDA-MB-435, read-out: LC 50%; for GI 100%: Breast Cancer
# OVCAR-3 = experiment: cells; conditions: Homo sapiens; for GI50: OVCAR-3; for CC50: OVCAR-3, read-out: LC 50%
# MDA-MB-231/ATCC = experiment: NCI60 anti-cancer screening; conditions: for GI50 / CC50: Homo sapiens; for GI50: MDA-MB-231; for CC50: MDA-MB-231, read-out: LC 50%; for GI 100%: MDA-MB-231/ATCC, Breast Cancer
# ACHN = experiment: NCI60 anti-cancer screening; conditions: for GI50 / CC50: Homo sapiens; for CC50: read-out: LC 50%; for GI 100%: Renal Cancer
# KM12 = experiment: NCI60 anti-cancer screening; conditions: for GI50 / CC50: Homo sapiens; for GI50 / GI 100%: KM12; for CC50: KM12, read-out: LC 50%; for GI 100%: Colon Cancer
# PC-3 = experiment: NCI60 anti-cancer screening; conditions: for GI50 / CC50: Homo sapiens; for GI50 / GI 100%: PC-3; for CC50: PC-3, read-out: LC 50%; for GI 100%: Prostate Cancer
# LOX IMVI = experiment: NCI60 anti-cancer screening; conditions: for GI50 / CC50: Homo sapiens; for CC50: read-out: LC 50%; for GI 100%: Melanoma
# NCI-H23 = experiment: NCI60 anti-cancer screening; conditions: for GI50 / CC50: Homo sapiens; for GI50 / GI 100%: NCI-H23; for CC50: NCI-H23, read-out: LC 50%; for GI 100%: Non-small cell lung carcinoma
compound,measurement,setting,value
COCCOC(=O)C1=C(C)NC2=C(C(=O)CC(c3ccc(Cl)cc3)C2)C1c1ccccc1F (stereo not shown) [Compound 3],GI50,SR,7.15 µM
same,CC50,SR,> 10 µM
same,GI 100%,SR,>10 µM
same,GI50,MOLT-4,8.39 µM
same,CC50,MOLT-4,> 10 µM
same,GI 100%,MOLT-4,>10 µM
same,GI 100%,HL-60(TB),>10 µM
same,activity in KRAS-mutation-harboring cancer cells (in words),[1],less activity
same,biologically active compounds that suppress compound-induced cell death,[2],"anti-oxidants (GSH, BHT, Vit. E), iron chelators (L-mim, DFOM), and a protein synthesis inhibitor (cycloheximide)"
same,effect of MEK1/2 inhibitor (U0126) on compound-induced cell death,[2]; U0126 10 uM,completely blocked
same,GI 100%,HT29,>10 µM
same,GI50,HT29,9.82 µM
same,CC50,HT29,> 10 µM
same,GI 100%,HOP-92,>10 µM
same,GI50,HOP-92,6.18 µM
same,CC50,HOP-92,> 10 µM
CCc1c(O)c2c(c(O)c1O[C@H]1O[C@@H](COC(C)=O)[C@H](OC(C)=O)[C@@H](CC(C)=O)[C@@H]1OC(C)=O)C(=O)C(O[C@@H]1O[C@H](COC(C)=O)[C@@H](OC(C)=O)[C@H](OC(C)=O)[C@H]1OC(C)=O)=C(O[C@@H]1O[C@H](COC(C)=O)[C@@H](OC(C)=O)[C@H](OC(C)=O)[C@H]1OC(C)=O)C2=O [Compound 6],GI50,SF-268,2.46 µM
same,CC50,SF-268,> 10 µM
same,GI 100%,SF-268,7.71 µM
same,GI50,SR,2.65 µM
same,CC50,SR,> 10 µM
same,GI 100%,SR,8.4 µM
same,GI50,RXF393,0.652 µM
same,CC50,RXF393,6.6 µM
same,GI 100%,RXF393,2.41 µM
same,GI50,M14,2.07 µM
same,CC50,M14,9.28 µM
same,GI 100%,M14,4.38 µM
same,GI50,SK-MEL-5,5 µM
same,CC50,SK-MEL-5,> 10 µM
same,GI 100%,SK-MEL-5,>10 µM
same,Maximum Inhibition %,Calu-1,100%
same,GI50,Calu-1; Homo sapiens,2.5 µM
same,GI50,PaCa-2,0.6 µM
same,Maximum Inhibition %,PaCa-2,100%
same,GI50,MDA-MB-435,2.21 µM
same,CC50,MDA-MB-435,9.07 µM
same,GI 100%,MDA-MB-435,4.38 µM
same,GI50,OVCAR-3,3.52 µM
same,CC50,OVCAR-3,> 10 µM
same,GI50,MDA-MB-231/ATCC,1.75 µM
same,CC50,MDA-MB-231/ATCC,9.52 µM
same,GI 100%,MDA-MB-231/ATCC,4.09 µM
same,GI50,ACHN,8.76 µM
same,CC50,ACHN,> 10 µM
same,GI 100%,ACHN,>10 µM
same,GI50,KM12,5.2 µM
same,CC50,KM12,> 10 µM
same,GI 100%,KM12,>10 µM
same,GI50,MOLT-4,0.783 µM
same,CC50,MOLT-4,> 10 µM
same,GI 100%,MOLT-4,3.91 µM
same,GI50,PC-3,5.07 µM
same,CC50,PC-3,> 10 µM
same,GI 100%,PC-3,>10 µM
same,GI50,LOX IMVI,1.73 µM
same,CC50,LOX IMVI,6.25 µM
same,GI 100%,LOX IMVI,3.29 µM
same,GI 100%,HL-60(TB),2.38 µM
same,activity in KRAS-mutation-harboring cancer cells (in words),[1],reasonable potency
same,biologically active compounds that suppress compound-induced cell death,[2],only reduced glutathione (GSH) was able to inhibit
same,GI 100%,HT29,>10 µM
same,GI50,HT29,3.32 µM
same,CC50,HT29,> 10 µM
same,GI 100%,HOP-92,4.31 µM
same,GI50,HOP-92,1.48 µM
same,CC50,HOP-92,> 10 µM
same,GI50,NCI-H23,4.17 µM
same,CC50,NCI-H23,> 10 µM
same,GI 100%,NCI-H23,>10 µM
COC(=O)c1ccc(C2c3[nH]c4ccccc4c3CC(C(=O)OC)N2C(=O)CCl)cc1 (stereo not shown) [Compound 27],GI50,SF-268,0.0692 µM
same,CC50,SF-268,0.577 µM
same,GI 100%,SF-268,0.218 µM
same,GI50,SR,0.4 µM
same,CC50,SR,6.58 µM
same,GI 100%,SR,1.6 µM
same,GI50,RXF393,1.3 µM
same,CC50,RXF393,6.93 µM
same,GI 100%,RXF393,3 µM
same,GI50,M14,1.07 µM
same,CC50,M14,4.75 µM
same,GI 100%,M14,2.25 µM
same,GI50,SK-MEL-5,1.38 µM
same,CC50,SK-MEL-5,5.16 µM
same,GI 100%,SK-MEL-5,2.67 µM
same,Maximum Inhibition %,Calu-1,100%
same,IC90 (in words),"Calu-1; Calu-1 cells, alamar blue",single-digit nanomolar range
same,GI50,Calu-1; Homo sapiens,0.001 µM
same,IC50,"Calu-1; Homo sapiens, Calu-1 cells, treated for 24 hour, alamar blue",0.02 µg/mL
same,GI50,PaCa-2,0.125 µM
same,Maximum Inhibition %,PaCa-2,100%
same,GI50,MDA-MB-435,1.71 µM
same,CC50,MDA-MB-435,8.19 µM
same,GI 100%,MDA-MB-435,3.74 µM
same,GI50,OVCAR-3,0.353 µM
same,CC50,OVCAR-3,6.59 µM
same,GI50,MDA-MB-231/ATCC,1.2 µM
same,CC50,MDA-MB-231/ATCC,9.18 µM
same,GI 100%,MDA-MB-231/ATCC,3.32 µM
same,GI50,ACHN,0.187 µM
same,CC50,ACHN,3.25 µM
same,GI 100%,ACHN,1.05 µM
same,GI50,KM12,0.188 µM
same,CC50,KM12,4.15 µM
same,GI 100%,KM12,1.19 µM
same,GI50,MOLT-4,1.02 µM
same,CC50,MOLT-4,7.39 µM
same,GI 100%,MOLT-4,2.74 µM
same,GI50,PC-3,0.231 µM
same,CC50,PC-3,3.29 µM
same,GI 100%,PC-3,1.08 µM
same,GI50,LOX IMVI,0.182 µM
same,CC50,LOX IMVI,0.826 µM
same,GI 100%,LOX IMVI,0.387 µM
same,GI 100%,HL-60(TB),0.537 µM
same,activity in KRAS-mutation-harboring cancer cells (in words),[1],active in all oncogenic-KRAS-harboring cancer cell lines tested
same,"effect of pan-caspase inhibitors (z-VAD-fmk, Boc-D-fmk) on compound-induced cell death",[2],not blocked
same,biologically active compounds that suppress compound-induced cell death,[2],"GSH, L-Mim, TLCK, DFOM, SU6656, Ro31-8220, and U0126 were effective"
same,GI 100%,HT29,1.46 µM
same,GI50,HT29,0.415 µM
same,CC50,HT29,4.06 µM
same,GI 100%,HOP-92,1.07 µM
same,GI50,HOP-92,0.0991 µM
same,CC50,HOP-92,5.85 µM
same,GI50,NCI-H23,1.15 µM
same,CC50,NCI-H23,7.59 µM
same,GI 100%,NCI-H23,2.95 µM
